From patent US11278682B2, “Device and method for aerosolized delivery of substance to a natural orifice of the body” (SIPNOSE LTD., priority 2014, dated 2022)
Where “and” joins values, the source holds several entries; their conditions need not be identical. Equal entries are not always repeated.

Tests used:
patients [1] = assay: Midazolam pre-medication sedation (BIS EEG monitoring), 1.4 mg, SipNose vs MAD Nasal atomizer; type: in vivo, human; details: for Positive Sedation / Adverse events / Level of minimum BIS / Onset time: individual patients 1 and 2
Experimental: Comparison with MAD (using a 1 mg/ml solution): For a pre-medication procedure with MAD atomizer, in order to achieve the desired dose of 1.4 mg Midazolam, the delivery device was delivered to one nostril and an aliquot of Midazolam within a volume of 1.4 ml was delivered. For SipNose device delivery the Midazolam was delivered in 2 separate aliquots of 0.7 ml, one to each nostril.
In order to determine the efficacy of anesthetization a BIS EEG monitoring was used, where the BIS values for brain activity are calculated from the EEG activity. Awake, unsedated individuals typically have BIS values ≥97. Mildly sedated individuals typically have BIS values in the 80's, moderately sedated individuals typically have BIS values in the 70's, while fully sedated individuals typically have BIS values below about 70; BIS values between about 45 and about 60 are commonly used for general anesthesia during the maintenance phase of an operation.
Two comparisons were made between the commercial device and the present, SipNose, device. In the first, 3 mg of Midazolam was administered and the commercial device was a commercial nasal pump (positive displacement), in the second, 1.4 mg of Midazolam was administered and the commercial device was a MAD applicator.
In the second comparison, the total dose of Midazolam was 1.4 mg in a total volume of carrier of 1.4 ml. For the SipNose device, it was administered in two aliquots of 0.7 ml, whereas it was administered in one aliquot for the commercial MAD Nasal atomizer from Wolfe Tory. Midozolam was administered to four patients, two with the SipNose device and two with the commercial MAD device.

[2] = tested on: patient suffering from epileptic seizures (SE); assay: Anti-epileptic treatment of status epilepticus with Midazolam, EEG recordings (case study); type: in vivo, human; details: 2 mg Midazolam via SipNose, nasal
Experimental: Case study of a patient, suffering from epileptic seizures (SE) was treated with a dose of 2 mg Midazolam with sipNose delivery device to deliver Midazolam via the nasal cavity.
Administration of Midazolam was done by administrating of […] of Midazolam to each nostril in a carrier volume of 1 ml. EEG recordings were measured before (FIGS. 82A and 82B) and 3 minutes following to the nasal administration of the drug with SipNose device.

[3] = Midazolam pharmacokinetic study, plasma and brain, SipNose vs IV; details: rats
Experimental: Concentration of Midazolam in the plasma and brain of rats were compared for intranasal administration via the SipNose delivery device and via IV administration. A standard drug formulation (Injectable Midazolam 5 mg/ml, Pfizer/Hospira brand) was used, with no reformulation or adaptation for nasal delivery. Two drug concentrations were used for the intranasal administration, 0.2 mg/kg (dashed line in FIGS. 91 and 92) and 0.6 mg/kg (dot-dash line in FIGS. 91 and 92), compared to the standard of care I/V administration of 0.6 mg/kg (solid line in FIGS. 91 and 92). Concentration was measured 10 times in the 12 hours of the study. For each measurement time, midazolam concentration was measured in the plasma and brain of five animals.

patients [4] = assay: Midazolam as pre-anesthetic drug: effectiveness, safety and user compliance, SipNose vs commercial nasal pump; type: in vivo, human; details: for BIS value (minimum after administration): 8 patients
Experimental: Midazolam was administered as a pre-anesthetic drug as a part of premeditation to subjects that needed to be anesthetized prior to the beginning a surgical procedure. Administration of the pre-anesthetic drug was done intranasally instead of the routine PO/IM (oral/intramuscular) route used by the anesthesiologist from the hospital.
The intranasal administration was given by one of the following medical devices: a SipNose nasal device (FIG. 93A) or a commercial nasal pump (FIG. 93B). A single dose of 1×600 microliter (μl) was given with the SipNose device, while 6×100 μl doses were given with a commercial nasal pump. An exemplary administration for the SipNose device is shown in FIG. 94A, while an exemplary administration for the commercial nasal pump is shown in FIG. 94B.
Eight low-risk patients (American Society of Anesthesiology physical status classification I or II) patients were included in each group. Clinical status of the patients, standard continuous monitoring of vital signs, and continuous bispectral index (BIS) monitoring was ongoing 5 minutes before intranasal administration and 30 minutes after.
The objective data consisted in minimum BIS value obtained after administration and time until minimum BIS. The subjective data consisted in physician feedback, swallowing of the drug appreciated by patient, sleeping score appreciated by physician.
Sedation Score was evaluated by physicians as a behavior tool to determine effectiveness of the dose that was given in each of the nasal administrations. Scoring was done according to the following criteria: 1=not Sleepy (not effective); 2=Sleepy/Calm (intermediate effect); 3=Sleeping (drug was effective).
Patients were asked to score if they felt the drug in their throat and/or felt a bitter taste in the throat after the administration of the drug.
The bitterness and swallowing were graded according to the following scale: 1=No swallowing/No bitter taste; 5=A meaningful amount was swallowed/Strong bitter taste.
The repeated administrations with the nasal pump were given with 30 s intervals between them to allow the drug to be absorbed in the nasal cavity before another dose was given.
The anesthesiologist in charge of the patients was asked to rate the overall experience with intranasal administration of midazolam. (1=very good; 5=Not satisfactory).

[5] = commercial MAD Nasal atomizer, 1.4 mg

With `Cc1ncc2n1-c1ccc(Cl)cc1C(c1ccccc1F)=NC2` [Midazolam] the “sleeping score by observation” value (patients [1]; SipNose administration, 1.4 mg) was 3, the “Positive Sedation” value (patients [1]; SipNose device, 1.4 mg in two aliquots of 0.7 ml) was “Yes” and the Adverse events (patients [1]; SipNose device, 1.4 mg) was “No”. The “Level of minimum BIS” value (patients [1]; SipNose device, 1.4 mg) was 84, the Onset time (patients [1]; SipNose device, 1.4 mg) was 3 min and 5 min and the “Positive Sedation” value (patients [1]; commercial MAD Nasal atomizer, 1.4 mg in one aliquot) was “Limited and No”. The Adverse events (patients [1]; [5]) was “No”, the “Level of minimum BIS” value (patients [1]; [5]) was 83 and 92 and the Onset time (patients [1]; [5]) was 20 min and 8 min. The “sleeping score by observation (average)” value (patients [1]; commercial device, 1.4 mg) was 1.5, the “time after administration at which brain activity (EEG) is back to normal” value [2] was 3 min and the pharmacokinetic pattern ([3]; 0.6 mg/kg intranasal via SipNose) was “very similar to that of standard of care (I/V) administration”. The “absorption into blood and brain” value ([3]; intranasal via SipNose (0.2 and 0.6 mg/kg) vs I/V 0.6 mg/kg) was “comparable to that seen for I/V administration”, the “patients with Highly Effective sedation” value (patients [4]; Commercial Nasal Pump) was 12.5% and the “patients with Intermediate Effect of sedation” value (patients [4]; Commercial Nasal Pump) was 50%. For the same compound, the “patients with sedation Not Effective” value (patients [4]; Commercial Nasal Pump) was 37.5%, the “patients with Highly Effective sedation” value (patients [4]; SipNose) was 100% and the “Sedation Score (1 not sleepy, 2 sleepy/calm, 3 sleeping)” value (patients [4]; SipNose group) was 3. The “BIS value (minimum after administration)” value (patients [4]; SipNose group, 1×600 μl) was 74.50±3.196, the “adverse events or safety issues” value (patients [4]; both administration procedures (SipNose and commercial nasal pump)) was “No adverse events or safety issues were reported” and the “Sedation Score (1 not sleepy, 2 sleepy/calm, 3 sleeping)” value (patients [4]; commercial pump group) was “below 2”. For the same compound, the “BIS value (minimum after administration)” value (patients [4]; commercial pump group, 6×100 μl) was 87.25±1.840.
